Measured values: patent US20120202756A1, “USE OF PRODRUGS TO AVOID GI MEDIATED ADVERSE EVENTS” (priority 2009, published 2012)
Like-named read-outs stand apart in the source and are kept apart here.

How the values were obtained:
[1] = Stability in simulated intestinal juice (FaSSIF); type: in vitro ADME; details: FaSSIF pH 6.5, pancreatin 1%, prodrug 20 μg/mL
Method: (§1) To avoid direct interaction between the active drug and the gut microfloral population, the prodrug should not undergo premature chemical or enzymic cleavage back to the parent dug while within the gut lumen. To confirm this the prodrugs were incubated with USP SGF (simulated gastric fluid), FeSSIF (fed state simulated intestinal fluid) and FaSSIF (fasted state simulated intestinal fluid) and remaining prodrug and any generated active drug assayed by use of a qualified LC-MS/MS analytical method.
(§2) Method—Prodrug (20 μg/mL) in the FaSSIF cocktail comprising sodium taurocholate 3 mM, lecithin 0.75 mM, NaOH 8.7 mM, NaH2PO4. H2O 28.7 mM, NaCl 106 mM, pancreatin 1% (overall pH 6.5) was incubated for 2 h at 37° C. After acidifying the incubation to stop any reaction the amount of prodrug remaining and drug generated were determined using a qualified LC-MS/MS method.
(§3) To minimize the direct inhibitory action of this drug on gastric emptying/gut motility—and resultant nausea—the prodrug should not undergo premature chemical or enzymic cleavage back to the parent drug while within the gut lumen. To confirm this, the prodrugs were incubated with USP SGF (simulated gastric fluid), FeSSIF (fed state simulated intestinal fluid) and FaSSIF (fasted state simulated intestinal fluid) and remaining prodrug, and any generated active drug, assayed by use of a qualified LC-MS/MS analytical method.
as §2, with “Prodrug” for “Method—Prodrug”
as §1, with “gut,” for “gut microfloral population,”

[2] = Stability in simulated intestinal juice (FeSSIF); type: in vitro ADME; details: FeSSIF pH 5.0, pancreatin 1%
Method: as §1
Pancreatin was again added at 1%.
as §3
as §1, with “gut,” for “gut microfloral population,”

Bacteroides fragilis = assay: MIC, clindamycin prodrugs; type: cell-based; details: for MIC: Bacteroides fragilis
[3] = tested on: Bacteroides thetaiotamicron; assay: MIC, clindamycin prodrugs; type: cell-based; details: for MIC: Bacteroides
[4] = tested on: Bifidobacterium adolescentis; assay: MIC, clindamycin prodrugs; type: cell-based
Bifidobacterium dentium = assay: MIC, clindamycin prodrugs; type: cell-based
Bifidobacterium longum = assay: MIC, clindamycin prodrugs; type: cell-based
Clostridium perfringens = assay: microbe, parasite or virus in culture; type: cell-based; details: for MIC: Clostridium perfringens
Clostridium sporogenes = assay: MIC, clindamycin prodrugs; type: cell-based; details: ATCC 3584
[5] = tested on: Prevotella melaninogenicus; assay: MIC, clindamycin prodrugs; type: cell-based
Propionibacterium acnes = assay: MIC, clindamycin prodrugs; type: cell-based; details: for MIC: Cutibacterium acnes
Veillonella atypical = assay: MIC, clindamycin prodrugs; type: cell-based
Veillonella parvula = assay: MIC, clindamycin prodrugs; type: cell-based
Campylobacter coli = assay: MIC, clindamycin prodrugs; type: cell-based; details: for MIC: Campylobacter coli
Campylobacter jejuni = assay: MIC, clindamycin prodrugs; type: cell-based; details: for MIC: Campylobacter jejuni
Helicobacter pylori = assay: MIC, clindamycin prodrugs; type: cell-based; details: for MIC: Helicobacter pylori
Staphylococcusaureus = assay: MIC, clindamycin prodrugs; type: cell-based
[6] = tested on: Staphylococcus epidermidis; assay: MIC, clindamycin prodrugs; type: cell-based
[7] = tested on: Staphylococcus haemolyticus; assay: MIC, clindamycin prodrugs; type: cell-based
Streptococcus pneumoniae = assay: MIC, clindamycin prodrugs; type: cell-based; details: for MIC: Streptococcus pneumoniae
Streptococcus pyogenes = assay: MIC, clindamycin prodrugs; type: cell-based
Group C Streptococcus = assay: MIC, clindamycin prodrugs; type: cell-based
Clostridium bifermentans = details: ATCC 638
[8] = tested on: Peptostreptococcus micros; details: clinical isolate
Prevotella intermedia = details: clinical isolate
Prevotella oralis = details: clinical isolate
Veillonella spp. = details: clinical isolate
[9] = tested on: Staphylococcus saprophyticus; details: antibiotic susceptible clinical isolate
Enterococcus faecium = details: vancomycin-susceptible clinical isolate
[10] = antibiotic-susceptible clinical isolate
[11] = clinical isolate (second listed, r38)
[12] = antibiotic susceptible clinical isolate
[13] = methicillin-resistant clinical isolate
[14] = Macrolide (MLS) resistant clinical isolate
[15] = read-out: Minimum inhibitory concentration

CCCC1CC(C(=O)NC(C(C)Cl)C2OC(SC)C(OC(=O)CCCC(=O)Nc3ccc(C(=O)O)cc3)C(O)C2O)N(C)C1.O=C(O)C(F)(F)F (stereo not drawn) [Clindamycin glutaryl PABA ester, Clindamycin-2-(glutaryl-PABA) ester trifluoroacetate]
1 µg/mL: Minimum inhibitory concentration [5, 11] | Minimum inhibitory concentration (Streptococcus pneumoniae; penicillin-susceptible clinical isolate) | Minimum inhibitory concentration (Veillonella spp.)
32 µg/mL: Minimum inhibitory concentration (Clostridium bifermentans)
4 µg/mL: Minimum inhibitory concentration (Veillonella atypical; NCTC 11830) | Minimum inhibitory concentration (Veillonella parvula; NCTC 11810) | Minimum inhibitory concentration (Staphylococcusaureus; ATCC 25923 - antibiotic-susceptible type strain) | Minimum inhibitory concentration (Staphylococcusaureus; ATCC 29213 - antibiotic-susceptible type strain) | Minimum inhibitory concentration [6, 12] | Minimum inhibitory concentration [7, 12] | Minimum inhibitory concentration (Streptococcus pyogenes; [14]) | Minimum inhibitory concentration [9]
0.06 µg/mL: Minimum inhibitory concentration (Campylobacter coli; clinical isolate)
8 µg/mL: Minimum inhibitory concentration (Clostridium perfringens; ATCC 13124) | Minimum inhibitory concentration (Clostridium perfringens; [10]) | Minimum inhibitory concentration (Propionibacterium acnes) | Minimum inhibitory concentration (Propionibacterium acnes; clinical isolate MIC clindamycin 0.5 mg/L) | Minimum inhibitory concentration [6, 13] | Minimum inhibitory concentration [8]
64 µg/mL: Minimum inhibitory concentration (Bacteroides fragilis; ATCC 25285)
2 µg/mL: Minimum inhibitory concentration ([4]; NCTC 11814) | Minimum inhibitory concentration (Bifidobacterium dentium; NCTC 11816) | Minimum inhibitory concentration (Bifidobacterium longum; NCTC 11818) | Minimum inhibitory concentration (Streptococcus pneumoniae; ATCC 49619 antibiotic-susceptible type strain) | Minimum inhibitory concentration (Streptococcus pyogenes; [10]) | Minimum inhibitory concentration (Group C Streptococcus; [10])
≦0.03 ug/mL: Minimum inhibitory concentration (Campylobacter coli; ATCC 33559) | Minimum inhibitory concentration (Campylobacter jejuni; ATCC 33560) | Minimum inhibitory concentration (Campylobacter jejuni; clinical isolate) | Minimum inhibitory concentration (Helicobacter pylori; ATCC 43504) | Minimum inhibitory concentration (Helicobacter pylori; clinical isolate (r56)) | Minimum inhibitory concentration (Helicobacter pylori; clinical isolate (r57)) | Minimum inhibitory concentration (Helicobacter pylori; clinical isolate (r100)) | Minimum inhibitory concentration (Helicobacter pylori; clinical isolate (r101)) | Minimum inhibitory concentration (Prevotella oralis)
0.12 µg/mL: Minimum inhibitory concentration (Prevotella intermedia)
>64 µg/mL: Minimum inhibitory concentration ([3]; ATCC 29741) | Minimum inhibitory concentration ([3]; NCTC 10582) | Minimum inhibitory concentration (Clostridium sporogenes) | Minimum inhibitory concentration (Staphylococcusaureus; ATCC 43300 - methicillin-resistant type strain) | Minimum inhibitory concentration (Enterococcus faecium)
<1%: Simulated intestinal juice (2 h, 37° C.) (FaSSIF) % active drug generated [1] | Simulated intestinal juice (2 h, 37° C.) (FeSSIF) % active drug generated [2]
0.5 µg/mL: Minimum inhibitory concentration ([5]; clinical isolate (first listed, r37))
16 µg/mL: Minimum inhibitory concentration (Bacteroides fragilis; clinical isolate)

CCC[C@@H]1C[C@@H](C(=O)N[C@@H]([C@H]2O[C@H](SC)[C@H](O)[C@@H](O)[C@H]2O)[C@H](C)Cl)N(C)C1 [Clindamycin, clindamycin, reference compound]
0.12 µg/mL: MIC (Bacteroides fragilis; [15]) | MIC (Bifidobacterium longum; Bifidobacterium longum, NCTC11818, read-out: Minimum inhibitory concentration) | MIC (Propionibacterium acnes; read-out: Minimum inhibitory concentration, clinical isolate MIC clindamycin 0.5 mg/L) | MIC ([6]; Staphylococcus epidermidis, read-out: Minimum inhibitory concentration) | Minimum inhibitory concentration [6, 13]
1 µg/mL: MIC ([3]; NCTC10582, read-out: Minimum inhibitory concentration)
≤ 0.03 µg/mL: MIC ([4]; Bifidobacterium adolescentis, NCTC11814, read-out: Minimum inhibitory concentration) | MIC (Bifidobacterium dentium; Bifidobacterium dentium, NCTC11816, read-out: Minimum inhibitory concentration) | MIC ([5]; Prevotella, read-out: Minimum inhibitory concentration) | MIC (Veillonella parvula; Veillonella parvula, NCTC11810, read-out: Minimum inhibitory concentration) | MIC (Campylobacter coli; ATCC33559, read-out: Minimum inhibitory concentration) | MIC (Campylobacter jejuni; ATCC33560, read-out: Minimum inhibitory concentration) | MIC (Campylobacter jejuni; [15]) | MIC (Helicobacter pylori; ATCC43504, read-out: Minimum inhibitory concentration) | MIC (Helicobacter pylori; [15]) | MIC (Streptococcus pneumoniae; ATCC49619, read-out: Minimum inhibitory concentration) | MIC (Streptococcus pneumoniae; [15]) | MIC (Streptococcus pyogenes; Streptococcus pyogenes, read-out: Minimum inhibitory concentration) | MIC (Group C Streptococcus; Streptococcus, read-out: Minimum inhibitory concentration)
≦0.03 ug/mL: Minimum inhibitory concentration [5, 11] | Minimum inhibitory concentration (Helicobacter pylori; clinical isolate (r56)) | Minimum inhibitory concentration (Helicobacter pylori; clinical isolate (r57)) | Minimum inhibitory concentration (Helicobacter pylori; clinical isolate (r101)) | Minimum inhibitory concentration (Streptococcus pyogenes; [14])
0.5 µg/mL: MIC (Bacteroides fragilis; ATCC25285, read-out: Minimum inhibitory concentration)
32 µg/mL: MIC (Clostridium sporogenes; Clostridium sporogenes, ATCC3584, read-out: Minimum inhibitory concentration)
2 µg/mL: MIC ([3]; ATCC29741, read-out: Minimum inhibitory concentration)
> 64 µg/mL: MIC (Staphylococcusaureus; read-out: Minimum inhibitory concentration, ATCC 43300 - methicillin-resistant type strain)
0.06 µg/mL: MIC (Clostridium perfringens; ATCC13124, read-out: Minimum inhibitory concentration) | MIC (Clostridium perfringens; [15]) | MIC (Propionibacterium acnes; read-out: Minimum inhibitory concentration, clinical isolate MIC clindamycin […]) | MIC (Veillonella atypical; Veillonella, NCTC11830, read-out: Minimum inhibitory concentration) | MIC (Campylobacter coli; [15]) | MIC (Staphylococcusaureus; read-out: Minimum inhibitory concentration, ATCC 25923 - antibiotic-susceptible type strain) | MIC (Staphylococcusaureus; read-out: Minimum inhibitory concentration, ATCC 29213 - antibiotic-susceptible type strain) | MIC ([7]; Staphylococcus haemolyticus, read-out: Minimum inhibitory concentration)
